Reference: patent publication US11051515B2, “3-acyl-benzamides and their use as herbicides” (Bayer Aktiengesellschaft, priority 2017, dated 2021)

Legend:
STEME [1] = experiment: Post-emergence action against STEME; format: in vivo, Stellaria media; settings: post-emergence, dosage 80 g/ha
Method in brief: (§1)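 Post-emergence foliar spray on greenhouse plants at the one-leaf stage, using wettable-powder or emulsion-concentrate formulations in water (600 to […], plus 0.2% wetting agent). Damage scored by eye roughly 3 weeks later against untreated plants: 0% = like control, 100% = dead.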

VIOTR [2] = experiment: Post-emergence action against VIOTR; format: in vivo, Viola tricolor; settings: post-emergence, dosage 80 g/ha
Method in brief: as §1

AVEFA [3] = experiment: Post-emergence action against AVEFA; format: in vivo, Avena fatua; settings: post-emergence, dosage 80 g/ha, visual assessment about 3 weeks after treatment vs untreated controls
Method in brief: as §1

ALOMY [4] = experiment: Post-emergence action against ALOMY; format: in vivo, Alopecurus myosuroides; settings: Dosage 80 g/ha, post-emergence
Method in brief: as §1

ALOMY [5] = experiment: Pre-emergence action against ALOMY; format: in vivo, Alopecurus myosuroides; settings: dosage 320 g/ha; pre-emergence; scored visually after 3 weeks vs untreated controls; 100% = plants have died, 0% = like control plants
Method in brief: (§2)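 Seeds sown in sandy loam in wood-fiber pots and covered with soil. Greenhouse growth; visual damage scored after 3 weeks versus untreated controls (100% = dead, 0% = like control).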

STEME [6] = experiment: Pre-emergence action against STEME; format: in vivo, Stellaria media; settings: Dosage 320 g/ha, pre-emergence
Method in brief: as §2

AVEFA [7] = experiment: Pre-emergence action against AVEFA; format: in vivo, Avena fatua; settings: dosage 320 g/ha, scored visually after 3 weeks vs untreated controls
Method in brief: as §2

PHBPU [8] = experiment: Post-emergence action against PHBPU; format: in vivo, Pharbitis purpurea; settings: post-emergence, dosage 80 g/ha
Method in brief: as §1

ECHCG [9] = experiment: Pre-emergence action against ECHCG; format: in vivo, Echinochloa crus-galli; settings: pre-emergence, dosage 320 g/ha, scored visually after 3 weeks vs untreated controls
Method in brief: as §2

LOLRI [10] = experiment: Post-emergence action against LOLRI; format: in vivo, Lolium rigidum; settings: dosage 80 g/ha, visual assessment about 3 weeks after treatment vs untreated controls
Description: (§3) Seeds of monocotyledonous and dicotyledonous weed and crop plants are laid out in sandy loam soil in wood-fiber pots, covered with soil and cultivated in a greenhouse under good growth conditions. 2 to 3 weeks after sowing, the test plants are treated at the one-leaf stage. The compounds of the invention, formulated in the form of wettable powders (WP) or as emulsion concentrates (EC), are then sprayed onto the green parts of the plants in the form of an aqueous suspension or emulsion at a water application rate equating to […], with addition of 0.2% wetting agent. After the test plants have been left to stand in the greenhouse under optimal growth conditions for about 3 weeks, the action of the preparations is assessed visually in comparison to untreated controls (herbicidal action in percent (%): 100% activity=the plants have died, 0% activity=like control plants). […] At the same time, inventive compounds leave Gramineae crops such as barley, wheat, rye, millet/Sorghum, corn or rice virtually undamaged when applied post-emergence, even at high active ingredient dosages. In addition, some substances are also harmless to dicotyledonous crops such as soya, cotton, oilseed rape, sugar beet or potatoes. Some of the compounds according to the invention have high selectivity and are therefore suitable for controlling unwanted vegetation in agricultural crops by the post-emergence method. The data of Tables B18 to B34 below illustrate, in an exemplary manner, the […] herbicidal action of the compounds according to the invention, the herbicidal activity being stated in percent.

SETVI [11] = experiment: Pre-emergence action against SETVI; format: in vivo, Setaria viridis; settings: pre-emergence, dosage 320 g/ha, scored visually after 3 weeks vs untreated controls
Method in brief: as §2

ECHCG [12] = experiment: Post-emergence action against ECHCG; format: in vivo, Echinochloa crus-galli; settings: post-emergence, dosage 80 g/ha, visual assessment about 3 weeks after treatment vs untreated controls
Method in brief: as §1

VERPE [13] = experiment: Post-emergence action against VERPE; format: in vivo, Veronica persica; settings: dosage 80 g/ha
Method in brief: as §1

MATIN [14] = experiment: Pre-emergence action against MATIN; format: in vivo, Matricaria inodora; settings: Dosage 320 g/ha, pre-emergence
Method in brief: as §2

VERPE [15] = experiment: Pre-emergence action against VERPE; format: in vivo, Veronica persica; settings: Dosage 320 g/ha, pre-emergence
Method in brief: as §2

SETVI [16] = experiment: Post-emergence action against SETVI; format: in vivo, Setaria viridis; settings: post-emergence, dosage 80 g/ha, visual assessment about 3 weeks after treatment vs untreated controls
Method in brief: as §1

MATIN [17] = experiment: Post-emergence action against MATIN; format: in vivo, Matricaria inodora; settings: post-emergence, dosage 80 g/ha, visual assessment about 3 weeks after treatment vs untreated controls
Method in brief: as §1

VIOTR [18] = experiment: Pre-emergence action against VIOTR; format: in vivo, Viola tricolor; settings: Dosage 320 g/ha, pre-emergence
Method in brief: as §2

AMARE [19] = experiment: Post-emergence action against AMARE; format: in vivo, Amaranthus retroflexus; settings: post-emergence, dosage 80 g/ha, visual assessment about 3 weeks after treatment vs untreated controls
Method in brief: as §1

POLCO [20] = experiment: Pre-emergence action against POLCO; format: in vivo, Polygonum convolvulus; settings: Dosage 320 g/ha, pre-emergence
Method in brief: as §2

POLCO [21] = experiment: Post-emergence action against POLCO; format: in vivo, Polygonum convolvulus; settings: post-emergence, dosage 80 g/ha
Method in brief: as §1

CYPES = experiment: Post-emergence action against CYPES; format: in vivo, Cyperus esculentus; settings: post-emergence, dosage 80 g/ha, visual assessment about 3 weeks after treatment vs untreated controls
Method in brief: as §1

AMARE [22] = experiment: Pre-emergence action against AMARE; format: in vivo, Amaranthus retroflexus; settings: pre-emergence, dosage 320 g/ha, scored visually after 3 weeks vs untreated controls
Method in brief: as §2

LOLRI [23] = experiment: Pre-emergence action against LOLRI; format: in vivo, Lolium rigidum; settings: dosage 320 g/ha, scored visually after 3 weeks vs untreated controls
Method in brief: as §2

ABUTH [24] = experiment: Post-emergence action against ABUTH; format: in vivo, Abutilon theophrasti; settings: post-emergence, dosage 80 g/ha, visual assessment about 3 weeks after treatment vs untreated controls
Method in brief: as §1

PHBPU [25] = experiment: Pre-emergence action against PHBPU; format: in vivo, Pharbitis purpurea; settings: Dosage 320 g/ha, pre-emergence
Method in brief: as §2

HORMU = experiment: Pre-emergence action against HORMU; format: in vivo, Hordeum murinum; settings: Dosage 320 g/ha
Method in brief: as §2

ABUTH [26] = experiment: Pre-emergence action against ABUTH; format: in vivo, Abutilon theophrasti; settings: pre-emergence, dosage 320 g/ha, scored visually after 3 weeks vs untreated controls
Method in brief: as §2

DIGSA [27] = experiment: Pre-emergence action against DIGSA; format: in vivo, Digitaria sanguinalis; settings: dosage 320 g/ha, scored visually after 3 weeks vs untreated controls
Excerpt: Seeds of monocotyledonous and dicotyledonous weed plants and crop plants are laid out in sandy loam soil in wood-fiber pots and covered with soil. The compounds of the invention, formulated in the form of wettable powders (WP) or as emulsion concentrates (EC), are then applied to the surface of the covering soil in the form of an aqueous suspension or emulsion at a water application rate equating to […], with addition of 0.2% wetting agent. After the treatment, the pots are placed in a greenhouse and kept under good growth conditions for the trial plants. The damage to the test plants is scored visually after a test period of 3 weeks by comparison with untreated controls (herbicidal activity in percent (%): 100% activity=the plants have died, 0% activity=like control plants).

DIGSA [28] = experiment: Post-emergence action against DIGSA; format: in vivo, Digitaria sanguinalis; settings: dosage 80 g/ha, visual assessment about 3 weeks after treatment vs untreated controls
Description: as §3

Structure (SMILES)	Post-emergence action against STEME (STEME [1])	Post-emergence action against VIOTR (VIOTR [2])	Pre-emergence action against STEME (STEME [6]) [%]	Post-emergence action against PHBPU (PHBPU [8])	Pre-emergence action against ECHCG (herbicidal activity) (ECHCG [9]) [%]	SETVI (Table B8, pre-emergence herbicidal activity) (SETVI [11]) [%]	Post-emergence action against ECHCG (herbicidal action in percent) (ECHCG [12]) [%]	Post-emergence action against VERPE (VERPE [13])	Pre-emergence action against MATIN (MATIN [14]) [%]	Pre-emergence action against VERPE (VERPE [15]) [%]	Post-emergence action against SETVI (herbicidal action in percent) (SETVI [16]) [%]	Post-emergence action against MATIN (herbicidal action in percent) (MATIN [17]) [%]	Pre-emergence action against VIOTR (VIOTR [18]) [%]	Post-emergence action against AMARE (herbicidal action in percent) (AMARE [19]) [%]	Pre-emergence action against AMARE (herbicidal activity) (AMARE [22]) [%]	Post-emergence action against ABUTH (herbicidal action in percent) (ABUTH [24]) [%]	Pre-emergence action against PHBPU (PHBPU [25]) [%]	Pre-emergence action against ABUTH (herbicidal activity) (ABUTH [26]) [%]	Pre-emergence action against DIGSA (herbicidal activity) (DIGSA [27]) [%]	Post-emergence action against DIGSA (herbicidal action in percent) (DIGSA [28]) [%]	other results
CCn1nnnc1NC(=O)c1ccc(C(F)F)c(C(=O)C2CC2)c1Cl [2-168]	100	100	100	100	100	100	100	80	100	100	100	100	100	100	100	100	80	100	–	–	Post-emergence action against AVEFA (herbicidal action in percent) (AVEFA [3]): 100%; Post-emergence action against ALOMY (ALOMY [4]): 100%; Pre-emergence action against ALOMY (herbicidal activity in percent) (ALOMY [5]): 100%; Pre-emergence action against AVEFA (herbicidal activity) (AVEFA [7]): 90%; Post-emergence action against LOLRI (herbicidal action in percent) (LOLRI [10]): 100%; Pre-emergence action against POLCO (POLCO [20]): 90%; Post-emergence action against POLCO (POLCO [21]): 100; Post-emergence action against CYPES (herbicidal action in percent) (CYPES): 100%; Pre-emergence action against LOLRI (herbicidal activity) (LOLRI [23]): 100%; Pre-emergence action against HORMU (HORMU): 90%
CCn1nnnc1NC(=O)c1ccc(C(F)(F)F)c(C(=O)C(F)F)c1Cl [2-163]	100	100	100	90	90	100	90	–	100	–	80	90	100	100	100	90	100	100	90	100	–
Cn1nnnc1NC(=O)c1ccc(C(F)(F)F)c(C(=O)C2CCCC2)c1Cl [1-154]	90	80	100	80	100	80	–	80	100	90	–	80	100	90	100	90	–	100	100	80	–
CCCn1nnnc1NC(=O)c1ccc(C(F)(F)F)c(C(=O)C2CCC2)c1Cl [3-153]	100	–	–	–	–	80	–	–	90	–	–	100	100	100	100	100	–	100	100	80	–
CCCn1nnnc1NC(=O)c1ccc(C(F)(F)F)c(C(=O)C2CCC2)c1SC [3-280]	100	80	100	80	80	100	80	–	90	–	–	90	100	100	100	100	–	100	100	80	–
